Results reported in patent US11638764B2, “Theranostic capture agents, compositions, and methods of using and making” (Indi Molecular, Inc., priority 2018, dated 2023).
Bridge positions count the residues as written; N and C are the ends. Square brackets hold non-standard residues; d marks the D form. Triazole bridges read from a SMILES are 1,4-linked. Ends that are not written are not given here. Peptide text beside a SMILES is read from it. Lys(N3) = [N-]=[N+]=NCCCC[C@H](N)C(=O)O; Pra = C#CC[C@H](N)C(=O)O

Assays:
PSMA-Myc-Flag (Origene) = molecular target: T1, PSMA-Myc-Flag (Origene) (Homo sapiens, UniProt Q04609); experiment: ELISA, PSMA immobilized via Myc-Flag tag, PCC titrated in solution; assay type: binding; details: biotin-PEG10-PEG10-peptide ligands
T1 construct: purchased Origene
T1 sequence (Q04609 whole entry): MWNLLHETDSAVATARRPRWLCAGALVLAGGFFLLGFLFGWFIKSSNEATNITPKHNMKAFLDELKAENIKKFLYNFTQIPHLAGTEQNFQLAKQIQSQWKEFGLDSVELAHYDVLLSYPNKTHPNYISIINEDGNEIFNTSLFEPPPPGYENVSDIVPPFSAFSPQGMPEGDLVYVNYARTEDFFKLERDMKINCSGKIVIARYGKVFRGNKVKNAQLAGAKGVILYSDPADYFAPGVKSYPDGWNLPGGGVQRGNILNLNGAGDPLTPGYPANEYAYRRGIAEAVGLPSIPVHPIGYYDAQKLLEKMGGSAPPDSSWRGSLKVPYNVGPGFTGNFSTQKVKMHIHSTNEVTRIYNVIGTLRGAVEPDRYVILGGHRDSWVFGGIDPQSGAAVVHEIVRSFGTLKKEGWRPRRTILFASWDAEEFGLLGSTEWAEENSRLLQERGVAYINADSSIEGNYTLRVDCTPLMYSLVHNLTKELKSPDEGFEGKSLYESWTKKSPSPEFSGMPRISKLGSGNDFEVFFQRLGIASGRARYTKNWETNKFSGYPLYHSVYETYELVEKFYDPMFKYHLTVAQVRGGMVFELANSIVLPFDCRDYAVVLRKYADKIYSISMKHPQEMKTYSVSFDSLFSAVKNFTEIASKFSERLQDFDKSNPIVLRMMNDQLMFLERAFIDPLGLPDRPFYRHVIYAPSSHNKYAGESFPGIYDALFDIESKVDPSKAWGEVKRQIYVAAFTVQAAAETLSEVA
Experimental: (§1) Epitope 5 hits were tested for binding to PSMA by ELISA (PSMA immobilized; PCC titrated in solution). Two immobilization strategies were employed: a His-tag and Myc-Flag tag (His-PSMA (Sino Biological) and PSMA-Myc-Flag (Origene)).

[1] = molecular target: T2, His-PSMA (Sino Biological) (Homo sapiens, UniProt Q04609); experiment: ELISA, PSMA immobilized via His-tag, PCC titrated in solution; assay type: binding; details: biotin-PEG10-PEG10-peptide ligands
T2 construct: purchased Sino Biological
T2 sequence (Q04609 whole entry): as above
Experimental: as §1

PC3 (PSMA−) cells = experiment: Flow cytometry binding to PSMA- cells; assay type: cell-based
Text: (§2) Hits resulting from the epitope 2 screen were also profiled by ELISA and flow.
(§3) Hits resulting from the epitope 3 screen were scaled up and subjected to ELISA and flow experiments.
(§4) To increase the throughput of the screening step, three epitopes were mixed and screened against the pre-cleared library. PSMA epitopes 2C, 6, and 7 were mixed and picked by either an ImmPACT Vector Red or BCIP/NBT dye (FIG. 11). The ImmPACT Vector Red screen identified the hit peptide ehtye (SEQ ID NO:22). […] Further epitope selectivity can be deconvoluted via a single epitope orientation assay.

LNCaP cells (PSMA+) = experiment: Flow cytometry binding to PSMA+ cells; assay type: cell-based
Text: as §2, §3
(§5) Hits resulting from the epitope 4 screen were also profiled in ELISA and flow cytometry.
as §4

recombinant PSMA = recombinant PSMA (Homo sapiens, UniProt Q04609); experiment: ELISA against recombinant PSMA protein; assay type: binding
Chain of recombinant PSMA (Q04609 whole entry): as above
Text: as §2, §3, §5, §4

full length PSMA protein = molecular target: T3, full length PSMA protein (Homo sapiens, UniProt Q04609); experiment: Bead screen with 50 nM full length PSMA protein; assay type: binding; details: beads that did not bind LNCaP cells
T3 construct: were incubated with 50 nM full length PSMA protein
T3 sequence (Q04609 whole entry): as above
Text: Some beads were lost during this screen. Most beads turned purple. […] These will be evaluated further by calculating their binding affinities by docking against the screened epitopes 2C, 6, and 7. Clustering analysis was used to identify some interesting sequences. Sequences found in the periphery (pkvrd (SEQ ID NO:27), frvkd (SEQ ID NO:28), dyksk (SEQ ID NO:32), Grkpf (SEQ ID NO:35), kwndd (SEQ ID NO:36), tkGne (SEQ ID NO:39), kvetd (SEQ ID NO:41), neGfd (SEQ ID NO:42), ekfld (SEQ ID NO:43), dkkaw (SEQ ID NO:44), veyGn (SEQ ID NO:45)) are generally preferred because they are more interesting chemically.

[2] = tested on: LNCaP cells (a PSMA+ cell line); experiment: LNCaP cell adherence to hit beads; assay type: cell-based; details: on-bead peptide
CD8 = experiment: ELISA selectivity over an unrelated protein; assay type: binding

Molecule | binding to PC3 / PSMA− cells by flow (PC3 (PSMA−) cells) | binding to LNCaP (PSMA+) cells by flow (LNCaP cells (PSMA+)) | binding to recombinant PSMA by ELISA (recombinant PSMA) | adherence of LNCaP cells to the bead [2] | also measured
CC(=O)N[C@H]1Cc2cn(nn2)CCCC[C@@H](C(N)=O)NC(=O)[C@@H](Cc2c[nH]c3ccccc23)NC(=O)[C@@H](Cc2c[nH]c3ccccc23)NC(=O)[C@@H](CCC(=O)O)NC(=O)[C@@H](CCCNC(=N)N)NC(=O)[C@@H](Cc2c[nH]cn2)NC1=O [hreww] (Ac-[Pra][dH][dR][dE][dW][dW][Lys(N3)]-NH2; triazole 1-7; N-terminus and C-terminus assumed) |  |  |  |  | binding to PSMA by ELISA (PSMA-Myc-Flag (Origene)): nanomolar binding affinity; binding to PSMA by ELISA [1]: nanomolar binding affinity
CC(=O)N[C@H]1Cc2cn(nn2)CCCC[C@@H](C(N)=O)NC(=O)[C@@H](Cc2c[nH]cn2)NC(=O)[C@@H](Cc2c[nH]cn2)NC(=O)[C@@H](CCCCN)NC(=O)[C@@H](Cc2ccccc2)NC(=O)[C@@H](CC(C)C)NC1=O [lfkhh] (Ac-[Pra][dL][dF][dK][dH][dH][Lys(N3)]-NH2; triazole 1-7; N-terminus and C-terminus assumed) | bound equally | bound equally |  |  | 
dntwp: dark purple bead in full length PSMA screen ([dD][dN][dT][dW][dP]) |  | no binding | no binding |  | bead colour after incubation with PSMA protein (full length PSMA protein): darker than the others
dwpve: LNCaP-adherent bead hit1 (Table 8) ([dD][dW][dP][dV][dE]) |  | no binding | no binding | good adherence | 
ehtye: hit of ImmPACT Vector Red screen against mixed epitopes 2C, 6, 7 ([dE][dH][dT][dY][dE]) | increased binding to PSMA− cells |  | Binding to recombinant PSMA protein was achieved |  | selectivity for PSMA over an unrelated protein (CD8) (CD8): good selectivity
ert dimer: dimer of epitope 2 hit ert, PEG10-ert-Tz-ert ([dE]-[dR]-[dT]; also: dimer: PEG10-ert-Tz-ert) | showed binding | showed binding |  |  | EC50 (recombinant PSMA; read-out: EC50 of binding to recombinant PSMA by ELISA): 0.769 µM
ert: epitope 2A/2B hit1 (Table 3) ([dE]-[dR]-[dT]) | did not show binding | did not show binding |  |  | 
kwtsd: LNCaP-adherent bead hit2 (Table 8) ([dK][dW][dT][dS][dD]) |  | no binding | no binding | good adherence | 
svand: LNCaP-adherent bead hit3 (Table 8) ([dS][dV][dA][dN][dD]) | same binding to both PSMA+ and PSMA− cells | modest | Binding to recombinant PSMA protein was achieved | good adherence | selectivity for PSMA over an unrelated protein (CD8) (CD8): good selectivity
